Results from patent US20240100012A1, “PHARMACEUTICAL DOSAGE FORM” (priority 2021, published 2024).

Columns and labels:
[1] = Solubility of escitalopram base in organic solvents; type: physicochemical
[2] = Aqueous solubility of escitalopram base; type: physicochemical; conditions: crystalline and/or oil forms

SMILES: CN(C)CCC[C@@]1(c2ccc(F)cc2)OCc2cc(C#N)ccc21 [escitalopram base, S-1-[3-(dimethylamino)propyl]-1-(4-fluorophenyl)-1,3-dihydro-5-isobenzofurancarbonitrile]
- solubility in organic solvents ([1]; crystalline or oil, organic solvents such as N-Methyl-2-pyrrolidone (NMP) and Dimethyl sulfoxide (DMSO)): extremely high solubility
- escitalopram content of solutions that can be prepared in organic solvents ([1]; oil forms of escitalopram base, organic solvents): more than 70 % wt
- aqueous solubility [2]: low aqueous solubility
